ChEMBL document CHEMBL5325395, “Design, synthesis and anti-ovarian cancer activities of thieno[2,3-d]pyrimidine based chimeric BRD4 inhibitor/nitric oxide-donator” (Eur J Med Chem, 2023)
pIC50: −log10 of the molar value. Active and inactive are the calls of the source. The rule behind the calls is not given here.

Assays:
[1] = tested on: SK-OV-3; test: Induction of autophagy in human SK-OV-3 cells assessed as reduction in cell viability at 100 nmol/L incubated for 24 hrs by CCK8 assay; format: functional, cell-based
[2] = target: Bromodomain-containing protein 4 (Homo sapiens, UniProt O60885); test: Inhibition of BRD4 (unknown origin)
[3] = tested on: SK-OV-3; test: Antiproliferative activity against human SK-OV-3 cells assessed as reduction in cell viability incubated for 24 hrs by CCK8 assay; format: functional, cell-based; conditions: SK-OV-3, 24 h
[4] = tested on: OVCAR-3; test: Antiproliferative activity against human OVCAR-3 cells assessed as reduction in cell viability incubated for 24 hrs by CCK8 assay; format: functional, cell-based; conditions: OVCAR-3, 24 h
[5] = tested on: SW626; test: Antiproliferative activity against human SW626 cells assessed as reduction in cell viability incubated for 24 hrs by CCK8 assay; format: functional, cell-based; conditions: SW626, 24 h
[6] = tested on: ES-2; test: Antiproliferative activity against human ES2 cells assessed as reduction in cell viability incubated for 24 hrs by CCK8 assay; format: functional, cell-based; conditions: ES-2, 24 h
[7] = tested on: A2780; test: Antiproliferative activity against human A2780 cells assessed as reduction in cell viability incubated for 24 hrs by CCK8 assay; format: functional, cell-based; conditions: A2780, 24 h
[8] = Induction of NO release in phosphate buffer at 0.5 hrs by Griess reagent based spectrophotometer analysis; format: functional
[9] = Induction of NO release in phosphate buffer at 1 hr by Griess reagent based spectrophotometer analysis; format: functional
[10] = Induction of NO release in phosphate buffer at 2 hrs by Griess reagent based spectrophotometer analysis; format: functional
[11] = Induction of NO release in phosphate buffer at 3 hrs by Griess reagent based spectrophotometer analysis; format: functional
[12] = Induction of NO release in phosphate buffer at 4 hrs by Griess reagent based spectrophotometer analysis; format: functional
[13] = Induction of NO release in phosphate buffer at 6 hrs by Griess reagent based spectrophotometer analysis; format: functional
[14] = Induction of NO release in phosphate buffer at 24 hrs by Griess reagent based spectrophotometer analysis; format: functional
[15] = tested on: SK-OV-3; test: Induction of autophagy in human SK-OV-3 cells assessed as reduction in cell viability at 1 mmol/L incubated for 24 hrs by CCK8 assay; format: functional, cell-based
[16] = tested on: Mus musculus; test: In vivo inhibition of BRD4 in BALB/c nude mouse xenografted with human SK-OV-3 cells assessed as reduction in c-Myc expression at 30 mg/kg, ip administered for 19 days by immunohistochemical analysis; format: functional, organism-based; conditions: time 19.0 day

Structure (SMILES) | Activity [1] | pIC50 [2] | pIC50 [3] | pIC50 [4] | pIC50 [5] | pIC50 [6] | pIC50 [7] | Activity [8] [µmol/L] | Activity [9] [µmol/L] | Activity [10] [µmol/L] | Activity [11] [µmol/L] | Activity [12] [µmol/L] | Activity [13] [µmol/L] | Activity [14] [µmol/L] | Activity [15] | inhibition [16]
CO/C1=C\C(C)=C\[C@@H](C)[C@@H](O)[C@@H](C)C/C(C)=C/C=C/[C@H](OC)[C@@H]([C@@H](C)[C@@H](O)[C@H](C)[C@@]2(O)C[C@@H](O)[C@H](C)[C@@H](C(C)C)O2)OC1=O | inactive |  |  |  |  |  |  |  |  |  |  |  |  |  |  | 
Cc1cc(-c2nc3sc4c(c3c(=O)[nH]2)CCN(C)C4)cc(C)c1OCCCC(=O)OCc1no[n+]([O-])c1C |  | 5.65 | 5.10 | 5.26 | 4.87 | 4.84 | 4.76 | 0.023 | 0.029 | 0.03 | 0.027 | 0.035 | 0.036 | 0.149 |  | 
Cc1cc(-c2nc3sc4c(c3c(=O)[nH]2)CCN(C)C4)cc(C)c1OCCCCCCO[N+](=O)[O-] |  | 5.65 | 5.41 | 4.75 | 4.77 | 4.80 | 4.85 | 0.029 | 0.038 | 0.03 | 0.03 | 0.036 | 0.037 | 0.166 |  | 
Cn1cnc(N)c2ncnc1-2 |  |  |  |  |  |  |  |  |  |  |  |  |  |  | Active | 
Cc1cc(-c2nc3sc4c(c3c(=O)[nH]2)CCN(C)C4)cc(C)c1OCCCC(=O)OCc1c(-c2ccccc2)no[n+]1[O-] |  | 5.77 | 5.50 | 4.86 | 5.12 | 4.72 | 5.14 | 0.063 | 0.068 | 0.068 | 0.056 | 0.066 | 0.117 | 0.249 |  | 
Cc1cc(-c2nc3sc4c(c3c(=O)[nH]2)CCN(C)C4)cc(C)c1O |  |  |  |  |  |  |  |  |  |  |  |  |  |  |  | Active
Cc1cc(-c2nc3sc4c(c3c(=O)[nH]2)CCN(C)C4)cc(C)c1OCCCCO[N+](=O)[O-] |  | 5.72 | 4.77 | 4.82 | 4.78 | 4.79 | 4.77 | 0.03 | 0.05 | 0.037 | 0.05 | 0.052 | 0.065 | 0.173 |  | 
Cc1cc(-c2nc3sc4c(c3c(=O)[nH]2)CCN(C)C4)cc(C)c1OCCCCCC(=O)OCc1c(-c2ccccc2)no[n+]1[O-] |  | 5.87 | 5.77 | 5.27 | 4.90 | 4.89 | 5.01 | 0.063 | 0.068 | 0.068 | 0.056 | 0.066 | 0.117 | 0.249 |  | 
Cc1cc(-c2nc3sc4c(c3c(=O)[nH]2)CCN(C)C4)cc(C)c1OCC(=O)OCc1no[n+]([O-])c1C |  | 5.92 | 5.79 | 5.43 | 5.01 | 5.05 | 5.27 | 0.028 | 0.04 | 0.025 | 0.033 | 0.037 | 0.042 | 0.169 |  | 
CCOC(=O)N1CCN(/[N+]([O-])=N/Oc2ccc([N+](=O)[O-])cc2[N+](=O)[O-])CC1 |  |  | 4.73 | < 4.70 | < 4.70 | < 4.70 | < 4.70 |  |  |  |  |  |  |  |  | 
Cc1cc(-c2nc3sc4c(c3c(=O)[nH]2)CCN(C)C4)cc(C)c1OCCCCCC(=O)OCc1no[n+]([O-])c1C |  | 5.71 | 4.92 | 5.16 | 5.24 | 5.33 | 5.16 | 0.02 | 0.03 | 0.033 | 0.036 | 0.04 | 0.044 | 0.154 |  | 
COc1cc(OC)c2c(=O)[nH]c(-c3cc(C)c(OCCO)c(C)c3)nc2c1 [APABETALONE] |  |  | 5.15 | 4.77 | 5.07 | 5.10 | 3.91 |  |  |  |  |  |  |  |  | 
Cc1cc(-c2nc3sc4c(c3c(=O)[nH]2)CCN(C)C4)cc(C)c1OCCCCCCOC(=O)c1no[n+]([O-])c1C |  | 5.63 | 5.20 | 5.15 | 4.92 | 5.33 | 4.88 | 0.022 | 0.027 | 0.028 | 0.026 | 0.036 | 0.044 | 0.154 |  | 
